The values that follow come from PMC6268609, “Synthesis and Evaluation of New β-Carboline-3-(4-benzylidene)-4H-oxazol-5-one Derivatives as Antitumor Agents” (Molecules, 2012).

Like-named read-outs stand apart in the source and are kept apart here.

As usually defined, the IC50 is the point on the concentration scale where inhibition reaches its midpoint.

Assay [1] concerns prostate (PC-3). The following applies: previous work; cited from earlier work.
The test system of assay [2] is ovarian (OVCAR-03). The following applies: previous work; cited from earlier work.
Another assay deals with glioma (U251). Description: Cytotoxic assay (sulforhodamine B), glioma. The following applies: for IC50: Homo sapiens, U-251, 48 h, sulforhodamine B assay. It is filed as cell-based, human. As to the method: (§1) The synthesized compounds were evaluated in vitro against six human cancer cell lines consisting of glioma (U251), melanoma (UACC-62), breast (MCF-7), prostate (PC-3), ovarian (OVCAR-03) and colon (HT-29). Cell lines were obtained from National Cancer Institute (Frederick, MD, USA). Normal cell line (VERO, renal, green monkey), from the Rio de Janeiro Cell Bank, was also used. Stock cultures were grown in medium containing 5 mL RPMI 1640 (GIBCO BRL) supplemented with 5% fetal bovine serum (FBS, GIBCO), at 37 °C with 5% CO2. Penicillin:streptomycin (1000 μg/L:1000 U/L, 1 mL/L) was added to the experimental cultures. Cells in 96-well plates (100 μL cells well^−1) were exposed to compounds 8–11 in DMSO (concentrations of 0.25, 2.5, 25, and 250 μg·mL^−1) at 37 °C, 5% of CO2 in air for 48 h. […] Afterwards cells were fixed with 50% trichloroacetic acid and cell proliferation determined by spectrophotometric quantification (540 nm) of cellular protein content by using sulforhodamine B assay and doxorubicin as the positive control. Three measurements were obtained: at time zero (To, at the beginning of incubation) and 48 h post-incubation for compound-free (C) and tested (T) cells. Cell proliferation was determined according to the equation 100 × [(T − T0)/C − T0], for T0 < T ≤ C, and 100 × [(T − T0)/T0], for T ≤ T0 and a concentration-response curve for each cell line was plotted using software ORIGIN 8.0® (OriginLab Corporation). Using the concentration–response curve for each cell line, the IC50 values (concentration that produces a 50% reduction in cellular growth when compared to untreated control cells) and IC100 values (concentration that promotes total growth inhibition) were determined through non-linear regression analysis using software ORIGIN 8.0® (OriginLab Corporation). Compounds with IC50 values < 100 μM were considered actives.
On the technique in general: Sulforhodamine B stains cellular protein and so reports cell mass.

The subject of assay [3] is ovarian (OVCAR-03). Description: Cytotoxic assay (sulforhodamine B), ovarian. The following applies: for IC50: Homo sapiens, 48 h, sulforhodamine B assay. It is filed as cell-based, human. On the procedure:
as §1

The subject of the next assay is colon (HT-29). The assay is described as follows: Cytotoxic assay (sulforhodamine B), colon. It is filed as cell-based. The following applies: Homo sapiens, 48 h. On the procedure:
as §1

A further assay deals with breast (MCF-7). The assay is described as follows: Cytotoxic assay (sulforhodamine B), breast. It is filed as cell-based. The conditions noted are these: Homo sapiens, MCF7, 48 h. As to the method: as §1
For assay [4], the system named is prostate (PC-3). The assay is described as follows: Cytotoxic assay (sulforhodamine B), prostate. It is filed as cell-based, human. The following applies: for IC50: Homo sapiens, 48 h, sulforhodamine B assay. On the procedure:
as §1

Another assay deals with melanoma (UACC-62). The assay is described as follows: Cytotoxic assay (sulforhodamine B), melanoma. It is filed as cell-based, human. The following applies: for IC50: Homo sapiens, UACC-62, 48 h, sulforhodamine B assay. On the procedure: as §1
Assay [5] concerns Normal cell line (VERO, renal, green monkey). Description: Cytotoxic assay (sulforhodamine B), normal cell line. It is filed as cell-based. The conditions noted are these: Chlorocebus sabaeus, 48 h. On the procedure:
as §1

In the case of `CN(C)c1ccc(-c2nc(-c3n[nH]c(=S)[nH]3)cc3c2[nH]c2ccccc23)cc1` [1-(4-N,N-dimethylaminophenyl)-3-(5-thioxo-1,2,4-triazol-3-yl)-β-carboline], the figures for the IC50 with prostate (PC-3) [1] and in the assay with ovarian (OVCAR-03) [2] were 1.37 µM and 1.09 µM, respectively.

With `COc1ccc(-c2nc(-c3nnc(SC)o3)cc3c2[nH]c2ccccc23)cc1` [1-(4-methoxyphenyl)-3-(2-methylthio-1,3,4-oxadiazol-5-yl) β-carboline], in the assay with ovarian (OVCAR-03) [2], the IC50 was 2.13 µM.

Turning to `O=C1OC(c2cc3c([nH]c4ccccc43)c(-c3ccccc3)n2)=NC1=Cc1cccc([N+](=O)[O-])c1` [Compound 8, 2-(1-Phenyl-9H-β-carbolin-3-yl)-4-(3-nitrobenzylidene)-4H-oxazol-5-one], the IC50 was 62.4 µM in the assay on glioma (U251); 63.2 µM in the assay with ovarian (OVCAR-03) [3]; greater than 100 µM with colon (HT-29); greater than 100 µM with breast (MCF-7); greater than 100 µM in the assay on prostate (PC-3) [4]; 7.52 µM in the assay on melanoma (UACC-62). In assay [5], this molecule gave an IC50 greater than 100 µM.

`CC(=O)Oc1ccc(-c2nc(C3=NC(=Cc4cccc([N+](=O)[O-])c4)C(=O)O3)cc3c2[nH]c2ccccc23)cc1` [Compound 9, 2-[1-(4-Acetoxyphenyl)-9H-β-carbolin-3-yl]-4-(3-nitrobenzylidene)-4H-oxazol-5-one]: the IC50 is 80.2 µM with glioma (U251); greater than 100 µM in the assay with ovarian (OVCAR-03) [3]; greater than 100 µM in the assay on colon (HT-29); greater than 100 µM with breast (MCF-7); greater than 100 µM in the assay on prostate (PC-3) [4]; 8.76 µM with melanoma (UACC-62). The molecule further gave a half-inhibitory concentration (IC50) in [5] greater than 100 µM.

For the molecule `COc1ccc(-c2nc(C3=NC(=Cc4cccc([N+](=O)[O-])c4)C(=O)O3)cc3c2[nH]c2ccccc23)cc1` [Compound 10, 2-[1-(4-Methoxyphenyl)-9H-β-carbolin-3-yl]-4-(3-nitrobenzylidene)-4H-oxazol-5-one], the IC50 with glioma (U251) was 0.35 µM; in the assay with ovarian (OVCAR-03) [3], 2.18 µM; with colon (HT-29), greater than 100 µM; with breast (MCF-7), 47.6 µM; in the assay with prostate (PC-3) [4], 5.28 µM; in the assay with melanoma (UACC-62), 15.9 µM. Besides, the half-maximal inhibitory concentration (IC50) in assay [5] is greater than 100 µM.

On to `COc1ccc(-c2nc(C3=NC(=Cc4ccccc4)C(=O)O3)cc3c2[nH]c2ccccc23)cc1` [Compound 11, 2-[1-(4-Methoxyphenyl)-9H-β-carbolin-3-yl]-4-benzylidene-4H-oxazol-5-one], for which the IC50 with glioma (U251) amounted to 0.48 µM; in the assay with ovarian (OVCAR-03) [3], 1.07 µM; with colon (HT-29), 67.9 µM; with breast (MCF-7), 23.4 µM; with prostate (PC-3) [4], 1.5 µM; in the assay with melanoma (UACC-62) it was 10 µM. In [5], this molecule yielded an IC50 of 63.2 µM. For the same molecule, the “IC100 (concentration that promotes total growth inhibition)” value with glioma (U251) (glioma (U251), cytostatic activity) is 15.50 µM; in the assay with ovarian (OVCAR-03) [3] (ovarian (OVCAR-03), cytostatic activity) it was 56.83 µM; in the assay with prostate (PC-3) [4] (prostate (PC-3), cytostatic activity) it was 64.17 µM; in the assay with melanoma (UACC-62) (melanoma (UACC-62), cytostatic activity) it was 112.42 µM.

With `COc1cccc2c1C(=O)c1c(O)c3c(c(O)c1C2=O)C[C@@](O)(C(=O)CO)C[C@@H]3O[C@H]1C[C@H](N)[C@H](O)[C@H](C)O1` [Doxorubicin, reference compound], the IC50 in the assay with glioma (U251) amounted to 0.03 µM; in the assay on ovarian (OVCAR-03) [3], 0.42 µM; in the assay on colon (HT-29), 0.18 µM; in the assay with breast (MCF-7), 0.06 µM; in the assay with prostate (PC-3) [4], 0.05 µM; with melanoma (UACC-62), 0.04 µM. Moreover, in [5], the IC50 stood at 0.5 µM.

For the molecule `O=C(NN=Cc1ccccc1Cl)c1cc2c([nH]c3ccccc32)c(-c2ccc(O)cc2)n1` [N'-(2-chlorobenzylidene)-1-(4-hydroxyphenyl)-β-carboline-3-carbohydrazide], the IC50 is 1.83 µM with prostate (PC-3) [1] and 1.65 µM in the assay with ovarian (OVCAR-03) [2].
